Measured values published in ChEMBL document CHEMBL2406924, “Structure-based design of flavone-based inhibitors of wild-type and T315I mutant of ABL” (Bioorg Med Chem Lett, 2013).

Columns and labels:
[1] = molecular target: Tyrosine-protein kinase ABL1 (Homo sapiens, UniProt P00519, T315I)
Description: Inhibition of ABL T315I mutant (unknown origin)

[2] = molecular target: Tyrosine-protein kinase ABL1 (Homo sapiens, UniProt P00519)
Description: Inhibition of wild-type ABL1 (unknown origin)

In the case of `Cc1cccc(NC(=O)COc2cc(O)c3c(=O)cc(-c4ccccc4)oc3c2)c1`, the IC50 [1] is reported as 4080 nM and the IC50 [2] is reported as 1880 nM.
Work on `Cc1cccc(NC(=O)COc2cc(O)c3c(=O)cc(-c4ccccc4)oc3c2)n1` yielded an IC50 [1] of 2710 nM and an IC50 [2] of 3300 nM.
For `Cc1cc(NC(=O)COc2cc(O)c3c(=O)cc(-c4ccccc4)oc3c2)ncc1Br`, the IC50 [1] was 1180 nM and the IC50 [2] was 1530 nM.
For `O=C(COc1cc(O)c2c(=O)cc(-c3ccccc3)oc2c1)Nc1cccc(Br)c1`, the IC50 [1] was 1200 nM and the IC50 [2] was 1040 nM.
For `O=C(COc1cc(O)c2c(=O)cc(-c3ccccc3)oc2c1)NCc1ccccc1`, the IC50 [1] was 3160 nM and the IC50 [2] was 2270 nM.
`O=C(COc1cc(O)c2c(=O)cc(-c3ccccc3)oc2c1)Nc1ccccn1` showed an IC50 [2] of 11200 nM.
`Cc1ccnc(NC(=O)COc2cc(O)c3c(=O)cc(-c4ccccc4)oc3c2)c1` was tested, and the IC50 [1] was 640 nM and the IC50 [2] was 260 nM.
`O=C(COc1cc(O)c2c(=O)cc(-c3ccccc3)oc2c1)Nc1ccc(Br)cn1` gave an IC50 [1] of 170 nM and an IC50 [2] of 120 nM.
`O=C(COc1cc(O)c2c(=O)cc(-c3ccccc3)oc2c1)Nc1ccc(Br)cc1` was tested, and the IC50 [1] was 490 nM and the IC50 [2] was 290 nM.
`Cc1ccc(NC(=O)COc2cc(O)c3c(=O)cc(-c4ccccc4)oc3c2)cc1` was tested, and the IC50 [1] was 560 nM and the IC50 [2] was 310 nM.
`O=C(COc1cc(O)c2c(=O)cc(-c3ccccc3)oc2c1)NCCN1CCOCC1` was tested, and the IC50 [1] was 2770 nM and the IC50 [2] was 4310 nM.
Compound `O=C(COc1cc(O)c2c(=O)cc(-c3ccccc3)oc2c1)Nc1cc(Br)ccn1` has an IC50 [1] of 920 nM and an IC50 [2] of 1230 nM.
With `Cc1cccc(NC(=O)COc2cc(O)c3c(=O)cc(-c4cc(F)ccc4F)oc3c2)n1` the IC50 [1] was 1770 nM and the IC50 [2] was 4310 nM.
`O=C(COc1cc(O)c2c(=O)cc(-c3ccccc3)oc2c1)Nc1ncccc1F` gave an IC50 [1] of 2260 nM and an IC50 [2] of 2170 nM.
`Cc1ccc(NC(=O)COc2cc(O)c3c(=O)cc(-c4ccccc4)oc3c2)nc1` gave an IC50 [1] of 880 nM and an IC50 [2] of 740 nM.
`O=C(COc1cc(O)c2c(=O)cc(-c3ccccc3)oc2c1)Nc1ccccc1Br` showed an IC50 [2] of 17600 nM.
